Measured values taken from the OPERA property sets (Mansouri et al. 2018).

SMILES	boiling point [°C]	ready biodegradability	log10 vapour pressure (mmHg)	melting point [°C]	log10 Henry constant (atm·m³/mol)	log10 Koa	log10 Koc (L/kg)
CCCC[Si]1(C)O[Si](C)(CCCC)O[Si](C)(CCCC)O[Si](C)(CCCC)O1 (centres undefined)	291	–	–	–	–	–	–
CCCCCCCCCCCCCC[N+](C)(C)Cc1ccccc1	–	not readily biodegradable	–	–	–	–	–
CCOc1cc(C(C)(C)C)ccc1C1COC(c2c(F)cccc2F)=N1 (centres undefined)	–	–	-7.79	102	–	–	–
C1CCC2(CC1)CCCCC2	207	–	–	–	–	–	–
CCCCOc1ccccc1	210	–	-0.529	-19.4	–	–	–
O=C(CBr)c1ccc(Br)cc1	–	–	–	111	–	–	–
CCCOCC	63.2	–	2.26	-128	–	–	–
O=S(=O)(Oc1ccc(Cl)cc1)c1ccc(Cl)cc1	–	not readily biodegradable	–	86.5	–	–	–
Clc1cc(Cl)c(Cl)c(Cl)c1Cl	277	not readily biodegradable	-3	86	-3.15	6.49	3.5
CC1(C)C2C=C[C@]1(C)CC2	146	–	–	113	–	–	–
COCC#N	119	–	–	–	–	–	–
O=C(O)Cc1ccc(O)c(O)c1	–	–	–	128	–	–	–
CCCOC(OCCC)OCCC	191	–	–	–	–	–	–
Cc1c(Cl)c(=O)oc2cc(OP(=O)(OCCCl)OCCCl)ccc12	–	–	–	91	–	–	–
CC(C)CCO	131	readily biodegradable	0.375	–	-4.85	4.52	–
O=Nc1ccc(O)c(N=O)c1O	–	–	–	168	–	–	–
CCC(C)(C)CC(C)(C)C	154	–	–	–	–	–	–
O=C(O)CC(O)(CC(=O)O)C(=O)O	–	readily biodegradable	-7.78	153	–	–	–
Cc1n[nH]c(=O)[nH]c1=O	–	–	–	211	–	–	–
O=Cc1ccccc1O[C@@H]1O[C@H](CO)[C@@H](O)[C@H](O)[C@H]1O	–	–	–	175	–	–	–
Cc1c[nH]c2ccccc12	266	–	-2.26	97.5	–	–	–
CC1CC(O)CC(C)(C)C1 (centres undefined)	196	–	–	46.5	–	–	–
O=C(O)C1CCCCC1	232	–	–	31.5	–	–	–

SMILES	boiling point [°C]	ready biodegradability	log10 vapour pressure (mmHg)	melting point [°C]	log10 Henry constant (atm·m³/mol)	log10 Koa	log10 Koc (L/kg)
Cc1ccc(C(=O)c2csc(S(N)(=O)=O)c2)cc1	–	–	–	176	–	–	–
O=C1Cc2ccccc2O1	249	–	–	50	–	–	–
CC(=O)CC(=O)C(=O)O	–	–	–	99.5	–	–	–
NC(=O)c1ccc(Br)cc1	–	–	–	192	–	–	–
NCCc1cnc[nH]1	–	–	–	86	–	–	–
CCOCOc1ccc(C(=O)Nc2cccc(Cl)c2Cl)cc1	–	–	–	92.5	–	–	–
Nc1c(Cl)cc(C(=O)O)cc1Cl	–	–	–	292	–	–	–
CC(=O)Nc1ccccc1O	–	readily biodegradable	–	208	–	–	–
CC(C)=CCC[C@@H](C)CC=O	207	–	–	–	–	–	–
COCC(F)(F)C(F)C(F)(F)F (centres undefined)	87.5	–	1.79	–	–	–	–
NS(=O)(=O)c1ccccc1[N+](=O)[O-]	–	–	–	191	–	–	–
Clc1cc(Cl)c2oc3c(Cl)c(Cl)ccc3c2c1	–	–	-7.48	164	–	–	–
O=C1c2cc([N+](=O)[O-])ccc2-c2ccc([N+](=O)[O-])cc21	–	–	–	294	–	–	–
C[C@@H]1CCC[C@H](C)C1 (racemic)	–	–	–	-82.8	–	–	–
COc1ccc(CCCCO)cc1	–	–	–	3.5	–	–	–
CCC(=O)c1ccc(C)cc1	236	–	-1.03	7.2	–	–	–
C=CCCO	114	–	–	–	–	–	–
Nc1ccc(Cc2ccc(N)cc2)cc1	398	not readily biodegradable	–	92.5	–	–	1.99
CC(C)(C)[N+](=O)[O-]	127	–	1.08	26.2	–	–	–
COc1ccccn1	142	–	–	–	–	–	–
CC(=O)n1ccnc1	–	–	–	102	–	–	–
C=CCC	-6.2	–	3.35	-185	-0.633	–	–
CCCC(C)=C(CC)C(C)=O	190	–	–	–	–	–	–

SMILES	boiling point [°C]	ready biodegradability	log10 vapour pressure (mmHg)	melting point [°C]	log10 Henry constant (atm·m³/mol)	log10 Koa	log10 Koc (L/kg)
Brc1c(Br)c(Br)c(Oc2c(Br)c(Br)c(Br)c(Br)c2Br)c(Br)c1Br	530	not readily biodegradable	–	295	–	–	–
CCC/C=C/CCCCCC	193	–	–	-80.3	–	–	–
O=C(O)CSCC(=O)O	–	–	–	129	–	–	–
CCOC(=O)C1(C)OC(=O)N(c2cc(Cl)cc(Cl)c2)C1=O (centres undefined)	–	–	-7.02	113	–	–	–
Cc1cc2ccccc2c2ccc3ccccc3c12	–	–	–	118	–	–	–
O=C(O)c1cccs1	–	–	–	130	–	–	–
Nc1ccc2c(c1N)C(=O)c1ccccc1C2=O	–	–	–	290	–	–	–
CCC1CC1	35.9	–	–	-149	–	–	–
CC1CC1	0.7	–	3.2	-177	–	–	–
COCOC	42	–	2.6	-105	-3.76	–	–
FC(Br)(Br)Br	108	–	–	-73.6	–	–	–
O=C(OOC(=O)c1ccc(Cl)cc1Cl)c1ccc(Cl)cc1Cl	–	not readily biodegradable	–	106	–	–	–
Cc1ccc(N)cc1C	228	readily biodegradable	-1.55	51	-5.73	–	–
CC(=O)Nc1ccc(C=O)cc1	–	–	–	157	–	–	–
CC(COc1ccc(Oc2ccccc2)cc1)Oc1ccccn1 (centres undefined)	–	–	-5.66	46	–	–	–
O=C(Cl)C(F)(F)F	-27	–	–	146	-3.35	–	–
O=C(c1ccccc1)c1ccc(Cl)cc1	332	–	–	77.5	–	–	–
O=C(O)CCC(=O)c1ccc(C2CCCCC2)c(Cl)c1	–	–	–	163	–	–	–
CN1CCC2=C(C1)C(c1ccccc1)c1ccccc12 (centres undefined)	–	–	–	91	–	–	–
CC(=O)NS(=O)(=O)c1ccc(NC(=O)c2ccccc2C(=O)O)cc1	–	–	–	196	–	–	–
O=C(NC(=O)c1c(F)cccc1F)Nc1ccc(OC(F)(F)C(F)OC(F)(F)F)c(Cl)c1 (centres undefined)	–	–	–	178	–	–	–
